Key:
MCF-7 cells = assay: Annexin V/PI flow cytometry, MCF-7; type: cell-based, human; conditions: IC50 concentration; 24 h
Description: (§1) In an embodiment, to understand the mechanisms leading to cell death, cells were studied for the induction of apoptosis by flow cytometry. […] Externalization of phosphatidylserine occurs during the early apoptotic events. While annexin V binds to phosphatidylserine, PI stains only cells that have lost their membrane integrity, an experimental procedure which allows the discrimination between viable cells, early apoptotic cells, late apoptotic/necrotic cells or necrotic cells.
(§2) In an embodiment, MCF-7, Hs578t and 786-O cells were seeded in 6-well culture plates and allowed to adhere over 18-20 hours in a complete DMEM (for MCF-7 and Hs578t cells) and complete RPMI (for 786-O cells) medium to detect apoptosis via flow cytometry analysis. […] Triplicates were performed in each experiment. Floating and adherent cells were collected and combined by centrifugation. Elimination of the supernatant was followed by addition of 1 mL of Binding Buffer. 8 μL FITC annexin V (556419, BD Pharmingen) and 30 μl of PI (50 μg/mL, P1304MP, Invitrogen) were added to the cell pellet. Samples were incubated in the dark for 15 min at room temperature. A further 200 μL of Binding Buffer was added to each sample. PI signal was measured using FACS LSRII flow cytometer (BD Biosciences®) with 488 nm excitation laser. […] The percentage of cells in each phase was analysed using the FlowJo 7.6 (Tree Star®) software. […]

[1] = tested on: CAM (chicken chorioallantoic membrane) blood vessels; assay: CAM assay, angiogenesis; type: in vivo; conditions: 2× the IC50 value; after 4 days of treatment
Protocol: In an embodiment, the in vivo capacity of the compounds to inhibit angiogenesis was analysed using the CAM model. To assess the effect on angiogenesis, sterilized 5-mm diameter filter disks were impregnated in culture medium with fixed concentration (2× the IC50 value) of the chromenes MC408 and MC421 or 0.5% DMSO (control group) and were placed onto the vascular area of CAM.
In an embodiment, CAM assay was performed. Fertilized chicken eggs were incubated at 37° C. and at day 3 of development, a window was opened into the eggshell after puncturing the air chamber. The window was sealed with BTK tape and returned to the incubator. On day 9 of development, Hs578t cells (2×10^6 cells) or 786-O cells (3.5×10^6 cells) with Matrigel (10 μL) were placed on CAM, allowing tumor formation and the eggs were tapped and returned to the incubator. At day 14 of development, the tumors were photographed. The treated groups received 20 μL of 2×IC50 concentration of MC408 or MC421 in complete DMEM (for Hs578t cells) or complete RPMI (for 786-O cells) media and the controls received 20 μL of 0.5% DMSO in complete DMEM or RPMI; these were added over the formed tumor. After 72 hours of treatment (day 17 of development), the tumors were photographed again in ovo. Sacrifice of chicken embryos was performed at −80° C. for 10 minutes and the CAM alone was fixed with paraformaldehyde at 4% before being photographed again ex ovo.

786-O cells [2] = assay: Annexin V/PI flow cytometry, 786-O; type: cell-based; conditions: IC50 concentration; 24 h
Description: as §1, §2

786-O cells [3] = assay: BrdU proliferation assay, 786-O; type: cell-based; conditions: 48 hours; IC50 and ½IC50
Protocol: In an embodiment, the effect of preferred chromene-based compounds on cell proliferation was evaluated. […] Results are presented as mean±SD at least three independent experiments. *p<0.05, **p<0.01, ***p<0.0005, ****p<0.0001 compared to control (0.5% DMSO). The significance of the difference between different groups was determined with Student t test. […] Exceptions are observed for compounds MC409, MC410 and MC368.
In an embodiment, proliferation assay was performed. 786-O cells were plated in 96-well plates at a density of 7000 cells/[…], and allowed to incubate overnight at 37° C. in a 5% CO2 humidified atmosphere. […] After incubation, cells were labelled by addition of 10 μl/well BrdU labelling solution (final concentration: 40 μM BrdU). The cells were then re-incubated for 16 h to allow BrdU to incorporate into the proliferating cell DNA, replacing thymidine. […] The immune complexes were detected by the addition of substrate solution (100 μl/well) and the plate was incubated at room temperature until color development was satisfactory for photometric detection (5-10 min). […] The reaction product was quantified by measuring absorbance at 450 nm (reference wavelength: 690 nm) in microplate reader (Tecan Infinite M200). […] The results of at least three independent experiments (in quadruplicate) were evaluated using GraphPad Prism 5 software.

Compound	induction of cell death by apoptosis (annexin V/PI) (MCF-7 cells)	formation of novel blood vessels [1]	pre-existing blood vessels [1]	induction of cell death by apoptosis (annexin V/PI) (786-O cells [2])	effect on cell proliferation (BrdU incorporation) (786-O cells [3])
COc1cccc2c1Oc1nc(-c3ccc(Br)cc3)[nH]c1C2 [MC408, 2-(4-bromophenyl)-5-methoxy-3,9-dihydrochromeno[2,3-d]imidazoles]	inducing cell death by apoptosis (early apoptosis)	decreased	disruption	inducing cell death by apoptosis (early apoptosis)	–
COc1cccc2c1Oc1nc(-c3ccc(F)cc3)[nH]c1C2 [MC409, 2-(4-fluorophenyl)-5-methoxy-3,9-dihydrochromeno[2,3-d]imidazoles]	–	–	–	–	Exceptions
COc1cccc2c1Oc1nc(-c3cc(F)cc(F)c3O)[nH]c1C2 [MC410, 2,4-difluoro-6-(5-methoxy-3,9-dihydrochromeno[2,3-d]imidazol-2-yl)phenol]	–	–	–	–	Exceptions
COc1cccc2c1Oc1nc(-c3ccc(Br)cc3)[nH]c1C2C1c2cccc(OC)c2Oc2nc(-c3ccc(Br)cc3)[nH]c21 (stereo not shown) [MC421, 2,2′-bis(4-bromophenyl)-5,5′-dimethoxy-1,1,9,9′-tetrahydro-9,9′-bichromeno[2,3-]imidazoles]	inducing cell death by apoptosis (early apoptosis)	decreased	disruption	inducing cell death by apoptosis (early apoptosis)	–
